Laboratory results as given in publication PMC11410249 (PLOS ONE, 2024).

Experiments:
Type in all cases: biochemical
12-LO = target: T1, 12-LO (Homo sapiens, UniProt P18054); test: LC-MS/MS enzyme activity assay, […] enzyme, […] arachidonic acid
T1 construct: gene ALOX12
T1 sequence (P18054 1-663): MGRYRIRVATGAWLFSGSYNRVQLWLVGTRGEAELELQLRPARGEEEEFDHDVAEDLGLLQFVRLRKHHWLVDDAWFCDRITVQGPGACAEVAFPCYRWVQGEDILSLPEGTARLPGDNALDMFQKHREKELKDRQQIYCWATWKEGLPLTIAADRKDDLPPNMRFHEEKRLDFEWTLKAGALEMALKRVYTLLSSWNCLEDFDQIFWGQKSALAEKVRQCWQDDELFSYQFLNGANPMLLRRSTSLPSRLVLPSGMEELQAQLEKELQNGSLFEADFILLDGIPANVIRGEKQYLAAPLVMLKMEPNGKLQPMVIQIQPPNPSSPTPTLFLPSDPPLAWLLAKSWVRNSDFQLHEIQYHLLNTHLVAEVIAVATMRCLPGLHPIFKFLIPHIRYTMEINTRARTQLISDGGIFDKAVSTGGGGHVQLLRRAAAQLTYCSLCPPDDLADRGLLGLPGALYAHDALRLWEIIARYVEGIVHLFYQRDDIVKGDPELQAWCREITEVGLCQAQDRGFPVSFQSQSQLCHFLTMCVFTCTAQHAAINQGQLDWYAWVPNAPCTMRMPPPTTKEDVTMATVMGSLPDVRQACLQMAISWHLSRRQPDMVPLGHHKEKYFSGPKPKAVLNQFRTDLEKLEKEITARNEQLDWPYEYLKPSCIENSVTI

15-lipoxygenase (15-LO) = target: T2, 15-lipoxygenase (15-LO) (Homo sapiens, UniProt P16050); test: as above
T2 construct: gene ALOX15
T2 sequence (P16050 2-662): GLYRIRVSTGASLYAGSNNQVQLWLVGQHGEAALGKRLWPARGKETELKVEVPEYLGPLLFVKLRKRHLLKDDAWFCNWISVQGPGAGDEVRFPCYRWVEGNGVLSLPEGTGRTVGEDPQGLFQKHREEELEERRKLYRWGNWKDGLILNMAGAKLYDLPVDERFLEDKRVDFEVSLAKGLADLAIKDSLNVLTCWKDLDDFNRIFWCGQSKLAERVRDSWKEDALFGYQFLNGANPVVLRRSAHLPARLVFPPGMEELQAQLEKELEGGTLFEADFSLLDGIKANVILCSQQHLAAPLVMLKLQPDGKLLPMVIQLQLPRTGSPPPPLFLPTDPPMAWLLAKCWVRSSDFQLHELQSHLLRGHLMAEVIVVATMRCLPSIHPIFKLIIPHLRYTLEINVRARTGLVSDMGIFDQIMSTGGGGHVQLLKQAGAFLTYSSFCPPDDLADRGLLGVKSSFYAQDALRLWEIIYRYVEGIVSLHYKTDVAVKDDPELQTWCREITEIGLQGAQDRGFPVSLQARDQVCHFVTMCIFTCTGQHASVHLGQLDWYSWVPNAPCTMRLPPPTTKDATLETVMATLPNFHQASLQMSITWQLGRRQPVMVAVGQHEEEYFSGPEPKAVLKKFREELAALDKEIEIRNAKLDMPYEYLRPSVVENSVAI

cyclooxygenase (COX-2) = target: T3, cyclooxygenase (COX-2) (Homo sapiens, UniProt P35354); test: in vitro enzyme activity assay (product formation by LC-MS/MS)
T3 construct: gene PTGS2
T3 sequence (P35354 18-604): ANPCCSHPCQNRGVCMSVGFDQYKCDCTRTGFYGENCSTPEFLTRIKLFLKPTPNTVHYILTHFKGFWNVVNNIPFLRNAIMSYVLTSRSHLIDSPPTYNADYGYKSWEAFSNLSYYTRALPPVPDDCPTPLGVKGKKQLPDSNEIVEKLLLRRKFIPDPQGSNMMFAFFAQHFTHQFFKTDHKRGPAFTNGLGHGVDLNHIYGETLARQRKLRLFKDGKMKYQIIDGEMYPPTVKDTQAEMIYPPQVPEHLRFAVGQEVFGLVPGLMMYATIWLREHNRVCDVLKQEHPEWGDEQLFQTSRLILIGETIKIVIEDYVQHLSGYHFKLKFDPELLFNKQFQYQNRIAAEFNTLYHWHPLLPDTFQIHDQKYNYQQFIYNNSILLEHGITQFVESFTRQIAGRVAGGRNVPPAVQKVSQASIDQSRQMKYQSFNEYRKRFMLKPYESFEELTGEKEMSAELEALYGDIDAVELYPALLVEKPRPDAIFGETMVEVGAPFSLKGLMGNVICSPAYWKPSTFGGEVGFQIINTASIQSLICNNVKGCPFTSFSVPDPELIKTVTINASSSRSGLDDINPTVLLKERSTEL

5-lipoxygenase (5-LO) = target: T4, 5-lipoxygenase (5-LO) (Homo sapiens, UniProt P09917); test: LC-MS/MS activity assay in lysate of 5-LO-transfected Expi293F cells, […] arachidonic acid
T4 construct: gene ALOX5; full-length human 5-LO
T4 sequence (P09917 1-674): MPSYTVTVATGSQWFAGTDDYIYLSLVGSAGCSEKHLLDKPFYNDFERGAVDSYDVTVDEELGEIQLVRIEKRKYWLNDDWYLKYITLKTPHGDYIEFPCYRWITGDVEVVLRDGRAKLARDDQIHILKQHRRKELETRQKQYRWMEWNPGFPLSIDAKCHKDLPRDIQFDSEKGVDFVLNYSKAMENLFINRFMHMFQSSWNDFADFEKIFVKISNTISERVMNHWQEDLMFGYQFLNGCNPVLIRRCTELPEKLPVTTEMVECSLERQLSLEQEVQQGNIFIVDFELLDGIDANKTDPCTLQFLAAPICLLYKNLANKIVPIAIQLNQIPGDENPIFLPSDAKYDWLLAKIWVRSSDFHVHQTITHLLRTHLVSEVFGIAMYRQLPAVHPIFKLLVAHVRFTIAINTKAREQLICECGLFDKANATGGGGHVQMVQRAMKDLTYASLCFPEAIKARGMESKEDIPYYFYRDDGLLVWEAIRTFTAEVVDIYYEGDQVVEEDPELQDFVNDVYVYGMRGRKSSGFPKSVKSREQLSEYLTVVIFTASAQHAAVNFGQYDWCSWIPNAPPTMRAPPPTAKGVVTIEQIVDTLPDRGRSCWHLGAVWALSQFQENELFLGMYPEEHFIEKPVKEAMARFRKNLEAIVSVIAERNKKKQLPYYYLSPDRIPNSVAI

- IC50 (12-LO): 5.2 µM
- IC50 (15-lipoxygenase (15-LO)): 0.95 µM
- IC50 (cyclooxygenase (COX-2)): 9.6 µM
- IC50 (5-lipoxygenase (5-LO)): 0.46 µM
Substance: PTC-041 hydroquinone
